Laboratory results from US20260055097A9, “NRF2 PROTEIN DEGRADERS” (Ganymede Oncology, Inc., priority 2022, published 2026).
Read-outs that look alike come from different tables or passages of the source.

Legend:
LK-2 = experiment: Cancer cell viability, LK-2 (CellTiter-Glo); format: cell-based; details: Homo sapiens, LK-2, 72 h, LK-2 cells, 3 days, read-out: Cellular IC50 (μM) LK-2
Outline: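 A549 and LK-2 cells were seeded overnight at 20 K/mL and 35 K/mL respectively. They were then exposed for 3 days to nine three-fold dilutions, typically from 30 µM final. Viability was read as CellTiter-Glo luminescence after a 15 min lysis.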

Nrf2 = target: T1, Nrf2 (Homo sapiens, UniProt Q16236); experiment: Nrf2 degradation in A549 HiBiT-Nrf2 cells, Nano-Glo HiBiT lytic detection (HiBiT readout); format: cell-based; design: host or cells: A549 HiBiT-Nrf2 cells (engineered line bought from Promega)
T1 sequence (Q16236 1-605): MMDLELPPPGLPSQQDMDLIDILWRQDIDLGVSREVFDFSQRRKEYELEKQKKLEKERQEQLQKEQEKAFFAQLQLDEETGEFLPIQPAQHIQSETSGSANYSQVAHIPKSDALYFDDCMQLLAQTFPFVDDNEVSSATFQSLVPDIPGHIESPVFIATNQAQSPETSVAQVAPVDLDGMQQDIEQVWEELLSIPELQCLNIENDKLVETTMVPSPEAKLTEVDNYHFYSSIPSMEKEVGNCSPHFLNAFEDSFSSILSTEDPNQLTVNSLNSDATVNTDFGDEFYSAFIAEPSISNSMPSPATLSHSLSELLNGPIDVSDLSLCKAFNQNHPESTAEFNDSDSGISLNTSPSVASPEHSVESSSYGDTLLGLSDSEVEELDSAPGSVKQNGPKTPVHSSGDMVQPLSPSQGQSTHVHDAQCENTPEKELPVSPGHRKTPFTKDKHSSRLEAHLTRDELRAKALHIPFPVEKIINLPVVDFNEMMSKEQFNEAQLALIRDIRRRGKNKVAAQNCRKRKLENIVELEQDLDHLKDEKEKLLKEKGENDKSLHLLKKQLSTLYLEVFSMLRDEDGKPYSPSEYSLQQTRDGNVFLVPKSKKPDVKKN
Outline: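 A549 HiBiT-Nrf2 cells seeded at 5,000 cells/well in Ham's F-12 with 10% FBS, then treated next day for 6 h and 20 h at 37 °C, 5% CO2. Nrf2 degradation read by Nano-Glo HiBiT lytic luminescence after 30 min at room temperature; staurosporine served as control.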

[1] = 6 h, read-out: DC50 (nM) at 6 h
[2] = 20 h, read-out: DC50 (nM) at 20 h

| SMILES | IC50 (LK-2) [µM] | DC50 (Nrf2; [1]) [nM] | DC50 (Nrf2; [2]) [nM] |
| --- | --- | --- | --- |
| Cc1sc(NC(=O)Cc2cccc(OCCOCCNc3cccc4c3C(=O)N(C3CCC(=O)NC3=O)C4=O)c2)nc1-c1ccc2c(c1)CCN2C(=O)C1CC1 (stereo not drawn) [Cpd. No. 34, N-(4-(1-(cyclopropanecarbonyl)indolin-5-yl)-5-methylthiazol-2-yl)-2-(3-(2-(2-((2-(2,6-dioxopiperidin-3-yl)-1,3-dioxoisoindolin-4-yl)amino)ethoxy)ethoxy)phenyl) acetamide] | 0.02 | < 300 | < 300 |
| Cc1sc(NC(=O)Cc2ccc(F)c(OCCOCCNc3ccc4c(c3)CN(C3CCC(=O)NC3=O)C4=O)c2)nc1-c1ccc2c(c1)CCN2C(=O)c1cncn1C (stereo not drawn) [Cpd. No. 30, 2-(3-(2-(2-((2-(2,6-dioxopiperidin-3-yl)-1-oxoisoindolin-5-yl)amino)ethoxy)ethoxy)-4-fluorophenyl)-N-(5-methyl-4-(1-(1-methyl-1H-imidazole-5-carbonyl)indolin-5-yl)thiazol-2-yl)acetamide] | 0.003 | < 300 | > 3000 |
